Measurements reported in ChEMBL document CHEMBL1201862, “PubChem BioAssay data set” (2004).
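Compound exposure: 48 hours, 5 concentrations, 96-well plates. GI50 marks 50% less growth.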 Calls of active or inactive are those of the source. Cut-off read from the data, not from the text of the source: active = GI50 up to about 1.1 µM and inactive = higher.

Legend:
Experiment in all cases: NCI anticancer screen, dose series, 48 h
[1] = test system: MDA-MB-435
[2] = test system: SF-295
[3] = test system: PC-3
[4] = test system: Malme-3M
[5] = test system: RXF 393
[6] = test system: NCI/ADR-RES
[7] = test system: SN12C
[8] = test system: 786-0
[9] = test system: TK-10
[10] = test system: U-251
[11] = test system: HT-29
[12] = test system: UACC-62
[13] = test system: SK-MEL-28
[14] = test system: SK-MEL-5
[15] = test system: RPMI-8226
[16] = test system: UO-31
[17] = test system: T47D
[18] = test system: SF-539
[19] = test system: HCT-116
[20] = test system: COLO 205
[21] = test system: MDA-N
[22] = test system: OVCAR-3
[23] = test system: OVCAR-8
[24] = test system: HCC 2998
[25] = test system: CCRF-CEM
[26] = test system: HL-60
[27] = test system: ACHN
[28] = test system: SF-268
[29] = test system: SW-620
[30] = test system: OVCAR-5
[31] = test system: K562
[32] = test system: MOLT-4
[33] = test system: DU-145
[34] = test system: HCT-15
[35] = test system: M14
[36] = test system: IGROV-1
[37] = test system: KM12
[38] = test system: SNB-19
[39] = test system: BT-549
[40] = test system: NCI-H226
[41] = test system: SK-OV-3
[42] = test system: HOP-92
[43] = test system: SNB-75
[44] = test system: UACC-257
[45] = test system: MDA-MB-231
[46] = test system: MCF7
[47] = test system: SK-MEL-2
[48] = test system: A549
[49] = test system: NCI-H460
[50] = test system: A498
[51] = test system: CAKI-1
[52] = test system: LOX IMVI
[53] = test system: NCI-H522
[54] = test system: NCI-H23

CCN(CC)CCNc1n[n+]([O-])c2ccccc2[n+]1[O-]
GI50 [1]: 22.3 µM (inactive)
GI50 [2]: 4.78 µM (inactive)
GI50 [3]: 8.53 µM (inactive)
GI50 [4]: 8.38 µM (inactive)
GI50 [5]: 8.63 µM (inactive)
GI50 [6]: 18.6 µM (inactive)
GI50 [7]: 3.56 µM (inactive)
GI50 [8]: 4.74 µM (inactive)
GI50 [9]: 8.89 µM (inactive)
GI50 [10]: 12.6 µM (inactive)
GI50 [11]: 8.93 µM (inactive)
GI50 [12]: 3.96 µM (inactive)
GI50 [13]: 39.3 µM (inactive)
GI50 [14]: 1.57 µM (inactive)
GI50 [15]: 3.06 µM (inactive)
GI50 [16]: 17.9 µM (inactive)
GI50 [17]: 5.32 µM (inactive)
GI50 [18]: 17.7 µM (inactive)
GI50 [19]: 8.22 µM (inactive)
GI50 [20]: 5.52 µM (inactive)
GI50 [21]: 12.2 µM (inactive)
GI50 [22]: 9.02 µM (inactive)
GI50 [23]: 8.65 µM (inactive)
GI50 [24]: 3.39 µM (inactive)
GI50 [25]: 3.57 µM (inactive)
GI50 [26]: 2.28 µM (inactive)
GI50 [27]: 3.79 µM (inactive)
GI50 [28]: 18.9 µM (inactive)
GI50 [29]: 11.9 µM (inactive)
GI50 [30]: 14.7 µM (inactive)
GI50 [31]: 3.25 µM (inactive)
GI50 [32]: 1.73 µM (inactive)
GI50 [33]: 13.9 µM (inactive)
GI50 [34]: 2 µM
GI50 [35]: 10.1 µM (inactive)
GI50 [36]: 2.43 µM (inactive)
GI50 [37]: 9.98 µM (inactive)
GI50 [38]: 12.5 µM (inactive)
GI50 [39]: 17.7 µM (inactive)
GI50 [40]: 9.93 µM (inactive)

CCC(CCCCC1CC[C@H]2CC(=O)C[C@@H]12)OC (stereo not given in full)
GI50 [41]: > 100 µM (inactive)
GI50 [2]: > 100 µM (inactive)
GI50 [5]: > 100 µM (inactive)
GI50 [6]: 71.1 µM (inactive)
GI50 [7]: > 100 µM (inactive)
GI50 [8]: > 100 µM (inactive)
GI50 [9]: > 100 µM (inactive)
GI50 [42]: > 100 µM (inactive)
GI50 [10]: > 100 µM (inactive)
GI50 [11]: > 100 µM (inactive)
GI50 [43]: > 100 µM (inactive)
GI50 [44]: 72.3 µM (inactive)
GI50 [45]: > 100 µM (inactive)
GI50 [13]: > 100 µM (inactive)
GI50 [46]: > 100 µM (inactive)
GI50 [14]: 79.8 µM (inactive)
GI50 [17]: > 100 µM (inactive)
GI50 [18]: > 100 µM (inactive)
GI50 [19]: > 100 µM (inactive)
GI50 [20]: > 100 µM (inactive)
GI50 [22]: > 100 µM (inactive)
GI50 [23]: > 100 µM (inactive)
GI50 [24]: > 100 µM (inactive)
GI50 [47]: > 100 µM (inactive)
GI50 [25]: 79.8 µM (inactive)
GI50 [26]: 36.7 µM (inactive)
GI50 [48]: > 100 µM (inactive)
GI50 [27]: > 100 µM (inactive)
GI50 [28]: > 100 µM (inactive)
GI50 [29]: > 100 µM (inactive)
GI50 [30]: > 100 µM (inactive)
GI50 [49]: > 100 µM (inactive)
GI50 [31]: 26.5 µM (inactive)
GI50 [50]: > 100 µM (inactive)
GI50 [32]: > 100 µM (inactive)
GI50 [33]: > 100 µM (inactive)
GI50 [34]: > 100 µM
GI50 [51]: > 100 µM (inactive)
GI50 [36]: > 100 µM (inactive)
GI50 [52]: > 100 µM (inactive)
GI50 [53]: > 100 µM (inactive)
GI50 [38]: > 100 µM (inactive)
GI50 [54]: > 100 µM (inactive)
GI50 [39]: > 100 µM (inactive)
GI50 [40]: > 100 µM (inactive)
